# Laboratory results reported in patent US20150125546A1, “COMBINATION THERAPY FOR TREATING PULMONARY HYPERTENSION” (Gilead Sciences, Inc., priority 2013, published 2015).
# Like-named read-outs stand apart in the source and are kept apart here. Ends that are not written are not given here.
# How the values were obtained:
# [1] = tested on: cGMP synthesis in isolated intrapulmonary arteries; assay: cGMP content in isolated rat intrapulmonary arteries; conditions: for ET-1-stimulated cGMP synthesis in the presence of bosentan / ET-1 plus riociguat-stimulated cGMP synthesis in the presence of bosentan: 100 nM bosentan; for ET-1-stimulated cGMP synthesis in the presence of bosentan: 8 nM ET-1; for ET-1 plus riociguat-stimulated cGMP synthesis in the presence of bosentan: 8 nM ET-1 plus 30 nM riociguat
# [2] = tested on: phosphorylation of MLC2 by MLCK; assay: ET-1-stimulated phosphorylation of MLC2 by MLCK in rat pulmonary arteries; conditions: qualitative (FIG. 10)
# Description: Further, ambrisentan and riociguat attenuated ET-1 stimulated phosphorylation of MLC2 by MLCK in rat pulmonary arteries (FIG. 10).
# [3] = tested on: endothelin-1 (ET-1)-constricted intrapulmonary arteries isolated from rats; assay: relaxation of ET-1-induced contraction of isolated rat intrapulmonary arterial rings; conditions: for relaxation of ET-1-constricted intrapulmonary arteries: 8 nM ET-1; for effect on potency of the other drug to relax ET-1 constricted rat pulmonary arteries: qualitative (FIG. 6, FIG. 7)
# ETA receptor = target: T1, ETA receptor (Homo sapiens, UniProt P25101); conditions: background statement; read-out: affinity for the ETA receptor; cited from earlier work
# T1 sequence (P25101 21-427): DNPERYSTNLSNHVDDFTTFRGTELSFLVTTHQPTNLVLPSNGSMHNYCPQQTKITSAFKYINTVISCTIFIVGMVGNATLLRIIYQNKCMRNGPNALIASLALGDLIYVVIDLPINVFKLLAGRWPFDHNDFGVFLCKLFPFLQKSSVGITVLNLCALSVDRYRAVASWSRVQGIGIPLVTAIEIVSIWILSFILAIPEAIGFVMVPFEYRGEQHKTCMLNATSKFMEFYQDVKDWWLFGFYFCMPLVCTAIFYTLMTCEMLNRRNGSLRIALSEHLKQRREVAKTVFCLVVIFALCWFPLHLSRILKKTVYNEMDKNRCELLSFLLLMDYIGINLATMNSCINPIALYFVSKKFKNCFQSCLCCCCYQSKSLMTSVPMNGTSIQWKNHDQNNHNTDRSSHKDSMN
# [4] = 30 nM alone, another run (FIG. 3, FIG. 4)
# [5] = 30 nM alone, first run (FIG. 2), mean±SEM
compound,measurement,setting,value
COC(=O)[C@@H](N)CCCN=C(N)N[N+](=O)[O-].Cl [L-NAME],blocking of ET-1 and its combination with riociguat to stimulate cGMP synthesis,[1],significantly blocked
"COC(c1ccccc1)(c1ccccc1)[C@H](Oc1nc(C)cc(C)n1)C(=O)O [ambrisentan, (2S)-2-[(4,6-dimethylpyrimidin-2-yl)oxy]-3-methoxy-3,3-diphenylpropanoic acid]",effect on ET-1 stimulated phosphorylation of MLC2 by MLCK,[2],attenuated
same,relaxation of ET-1-constricted intrapulmonary arteries,"[3]; 10 nM alone, another run (FIG. 3), mean±SEM",28.5±6.4%
same,relaxation of ET-1-constricted intrapulmonary arteries,"[3]; 10 nM alone, first run (FIG. 2), mean±SEM",29±6%
same,effect on potency of the other drug to relax ET-1 constricted rat pulmonary arteries,[3],increased the potency of riociguat
same,blocking of ET-1 and its combination with riociguat to stimulate cGMP synthesis,[1]; qualitative,"but not ambrisentan, significantly blocked"
same,Ki,ETA receptor,~0.012 nM
COc1ccccc1Oc1c(NS(=O)(=O)c2ccc(C(C)(C)C)cc2)nc(-c2ncccn2)nc1OCCO [bosentan],relaxation of ET-1-constricted intrapulmonary arteries,"[3]; 100 nM alone, another run (FIG. 4)",19.8%
same,relaxation of ET-1-constricted intrapulmonary arteries,"[3]; 100 nM alone, first run (FIG. 2), mean±SEM",23±3%
same,ET-1-stimulated cGMP synthesis in the presence of bosentan,[1]; another run (FIG. 9),36 pmol/g tissue
same,ET-1-stimulated cGMP synthesis in the presence of bosentan,[1]; first run,21±3 pmol/g tissue
same,ET-1 plus riociguat-stimulated cGMP synthesis in the presence of bosentan,[1]; another run (FIG. 9),97 pmol/g tissue
same,ET-1 plus riociguat-stimulated cGMP synthesis in the presence of bosentan,[1]; first run,37±3 pmol/g tissue
same,blocking of ET-1 and its combination with riociguat to stimulate cGMP synthesis,[1]; qualitative,significantly blocked
CCCNS(=O)(=O)Nc1ncnc(OCCOc2ncc(Br)cn2)c1-c1ccc(Br)cc1 [macitentan],relaxation of ET-1-constricted intrapulmonary arteries,[3]; [4],30.1%
same,relaxation of ET-1-constricted intrapulmonary arteries,[3]; [5],30±6%
"COC(=O)N(C)c1c(N)nc(-c2nn(Cc3ccccc3F)c3ncccc23)nc1N [riociguat, methyl (4,6-diamino-2-(1-(2-fluorobenzyl)-1H-pyrazolo[3,4-b]pyridin-3-yl)pyrimidin-5-yl)(methyl)carbamate]",effect on ET-1 stimulated phosphorylation of MLC2 by MLCK,[2],attenuated
same,relaxation of ET-1-constricted intrapulmonary arteries,[3]; [4],23.2±6.5%
same,relaxation of ET-1-constricted intrapulmonary arteries,[3]; [5],23±3%
same,effect on potency of the other drug to relax ET-1 constricted rat pulmonary arteries,[3],increased the potency of ambrisentan
same,content of cGMP,[1]; 10 nM ET-1 and 30 nM riociguat in combination,96±7 pmol/g tissue
same,content of cGMP,[1]; 30 nM riociguat alone,34±5 pmol/g tissue
same,effect on ET-1-stimulated cGMP production,[1]; qualitative (FIG. 8),potentiated ET-1-stimulated cGMP production
"Endothelin-1 (CSCSSLMDKECVYFCHLDIIW; ends and bridges not checked; cysteine pairing not given here; UniProt P05305 53-73, looked up) [ET-1]",content of cGMP,[1]; 10 nM ET-1 alone,37±4 pmol/g tissue
